Reference: PMC8791944, “GLUT3 inhibitor discovery through in silico ligand screening and in vivo validation in eukaryotic expression systems” (Scientific Reports, 2022)

Biological target: T1, GLUT1 (Homo sapiens, UniProt P11166)
T1 construct: expressed in transfected cells; host or cells: Saccharomyces cerevisiae hxt0 strain EBY.S7 (fgy1)
T1 sequence (P11166 1-492): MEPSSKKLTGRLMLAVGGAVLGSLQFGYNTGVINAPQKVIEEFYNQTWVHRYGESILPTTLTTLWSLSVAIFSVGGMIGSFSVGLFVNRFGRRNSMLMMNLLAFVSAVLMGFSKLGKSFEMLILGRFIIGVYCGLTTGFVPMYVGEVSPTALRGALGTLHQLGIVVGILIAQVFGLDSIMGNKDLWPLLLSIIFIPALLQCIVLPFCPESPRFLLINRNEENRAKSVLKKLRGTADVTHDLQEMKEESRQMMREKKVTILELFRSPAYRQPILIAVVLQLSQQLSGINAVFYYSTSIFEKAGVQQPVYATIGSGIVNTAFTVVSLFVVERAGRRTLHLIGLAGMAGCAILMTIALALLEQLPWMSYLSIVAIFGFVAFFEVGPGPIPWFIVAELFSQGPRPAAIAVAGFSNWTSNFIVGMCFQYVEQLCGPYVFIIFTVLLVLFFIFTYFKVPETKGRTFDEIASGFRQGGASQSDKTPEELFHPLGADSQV
Assay: Glucose transport assay, GLUT1 expressed in hxt^0 yeast cells EBY.S7
Format: cell-based
Conditions: read-out: IC50 for GLUT1 transport inhibition
Source text: The most studied GLUTs are Class 1 GLUTs (GLUT1-4) and a Class 2 GLUT, GLUT5 (a fructose-only transporter). GLUT3 sequence homology and identity is 79% and 64%, 71% and 52%, 74% and 57%, and 60% and 38% with GLUT1, GLUT2, GLUT4, and GLUT5, respectively. The hxt^0 yeast cell systems expressing functional GLUT1-4[65],[69] and GLUT5[66] allow us to determine the in vivo transport activity (substrate uptake by a GLUT into whole cells) for individual GLUTs and establish GLUT3 inhibitor selectivity for these transporters. […] Given the higher sequence similarity within Class 1 GLUTs, we expected GLUT3 inhibitors to affect Class 1 GLUTs much more than GLUT5. Indeed, G3iA-G3iF reduced the transport activities of some of the other Class 1 GLUTs (Fig. 3A–C, Table 2, Supplementary Fig. S6). […] For example, G3iB was an equipotent inhibitor of GLUT4, while G3iD and G3iE inhibited GLUT1 in a similar manner to GLUT3. […] Moreover, G3iD affected all Class 1 GLUTs, having the best relative selectivity for GLUT4.
Figure 3 Effect of GLUT3 inhibitors on GLUT1, GLUT2, GLUT4, and GLUT5. The transport activity was assayed as the substrate uptake in hexose transporter-deficient yeast cells expressing functional GLUT1[65], GLUT2[69], GLUT4[65], or GLUT5[66]. […] Transport assay was initiated by the addition of C^14-labeled substrate and stopped after 10 min (see “Materials and methods” for details). (A–D) Effect of G3iA-G3iF, at 50 µM concentration, on the relative transport activities of GLUT1 (A), GLUT2 (B), GLUT4 (C), and GLUT5 (D). Standard deviations for experimental points come from at least three independent measurements.
The plasmids containing functional constructs of GLUT1-5 were transformed in the corresponding hxt^0 strains[65],[66],[73] (EBY.VW4000 for GLUT5S72Y, EBY.S7 for GLUT1, GLUT2∆loopS_Q455R, GLUT3 and GLUT3S66Y, and SDY.022 for GLUT4) and grown on 2% (w/v) agar plates of the respective media supplemented with 1% (w/v) maltose. An initial culture of ~ 10 ml was started with a few colonies and grown for 2–3 days if the media was SC-uracil with 1% (w/v) maltose (GLUT1, GLUT3, GLUT4) or 1–2 days if the media was YEP with 1% (w/v) maltose and 100 µg/ml geneticin G418 (GLUT2∆loopS_Q455R and GLUT5S72Y). […] Then, cells were transferred in the same media so that OD600nm ~ 0.5 and grown further for 1–2 days.
For transport activity assay, cells in the hexose media were centrifuged (1000×g, 5 min, room temperature), washed once with PBS buffer (10 mM Na2HPO4, 1.8 mM KH2PO4, 2.7 mM KCl, 137 mM NaCl, pH 7.4), and resuspended in PBS buffer at an OD600nm ~ 10; each assay contained 100 µl of this cell solution. […] Substrate uptake into cells was linear for more than 20 min. […] The filtration membranes were transferred into scintillation vials with 10 ml of Scintillation Solution (BioSafeII; Research Products International, Mount Prospect, IL, USA), and vortexed briefly. The radioactivity was determined with a scintillation counter (Tri-carb 2900TR, Perkin Elmer, USA). As all compounds were solubilized in dimethyl sulfoxide (DMSO), controls for determining the relative transport activity included 1% (v/v) DMSO to represent DMSO used as vehicle control (i.e., 100% activity), and known inhibitors at saturating concentrations, 200 µM phloretin for GLUT1-4[69],[82], and 100 µM N-[4-(methylsulfonyl)-2-nitrophenyl]-1,3-benzodioxol-5-amine (MSNBA) for GLUT5 (i.e., complete inhibition). […] Data were analyzed with GraphPad Prism (San Diego, CA, USA).
Supplementary Figure S6. Dose response curves for GLUT3 inhibitors on the transport activities of GLUT1, GLUT2, and GLUT4 in hxt^0 yeast cells. Dose response curves for GLUT3 inhibitors in GLUT1 (top row), GLUT2 (middle row), and GLUT4 (bottom row). […] Error bars represent standard deviations from at least three independent measurements. Graphs, data analysis, and IC50 values were generated with GraphPad (www.graphpad.com).

Compound: CC(=O)Nc1ccc(S(=O)(=O)Nc2ccc(Nc3cc(N(C)C)nc(C)n3)cc2)cc1 [G3iA, N-(4-{[(4-{[6-(dimethylamino)-2-methylpyrimidin-4-yl]amino}phenyl)amino]sulfonyl}phenyl)acetamide]
- IC50: > 50 µM

Compound: COc1ccccc1-n1c(/C=C/c2ccc(O)cc2)nc2ccc(Br)cc2c1=O [G3iB, 6-bromo-2-[(E)-2-(4-hydroxyphenyl)ethenyl]-3-(2-methoxyphenyl)quinazolin-4(3H)-one]
- IC50: 25 ± 8.6 µM

Compound: Cc1cccnc1OC1CCN(c2cc(N3CCCC3CO)ncn2)CC1 (stereo not drawn) [G3iC]
- IC50: 49.4 ± 6.7 µM

Compound: Cc1cc(NC(=O)CCC2Cc3ccccc3NC2=O)nc(-c2ccccc2)n1 (stereo not drawn) [G3iD]
- IC50: 17.7 ± 2.3 µM

Compound: O=C(Nc1cccc(Cl)c1)c1cccc(NC(=O)c2cccc([N+](=O)[O-])c2)c1 [G3iE, N-{3-[(3-chloroanilino)carbonyl]phenyl}-3-nitrobenzamide]
- IC50: 22.4 ± 3.7 µM

Compound: Cc1ccccc1CN(Cc1nnc(C(C)(C)C)o1)c1ccc2nc(O)[nH]c2c1 [G3iF]
- IC50: > 50 µM
